According to US4112228A, “7-(D-α-Hydroxy-2-arylacetamido)-3-(2-carboxyalkyl-2,3-dihydro-s-tri azolo-[4,3-b]pyridazin-3-on-6-ylthiomethyl)-3-cephem-4-carboxylic acids and derivatives” (priority 1977, dated 1978):
Where two headings read alike, the source gives them in different places.

Tests used:
Urinary recovery in rats = format: in vivo; conditions: rat, urine, sc 10 mg./kg., 0-24 Hrs.
St. faecalis = test: MIC by Steers' agar dilution method; conditions: Enterococcus faecalis
S. pyogenes = test: MIC by Steers' agar dilution method
S. aureus Smith = test: Standard experimental infection in mice; format: in vivo; conditions: Table 6
Kl. pneumoniae = test: MIC by Steers' agar dilution method; format: cell-based; conditions: Klebsiella pneumoniae
P. vulgaris A9436 (Pv-1) = test: Standard experimental infection (single sc treatment); conditions: for No. of survivors/No. tested: Run C-808, single sc
P. stuartii = test: MIC by Steers' agar dilution method; conditions: Providencia stuartii
S. typhimurium = test: MIC by Steers' agar dilution method; conditions: Salmonella enterica
[1] = Blood levels in mice after subcutaneous administration; format: in vivo; conditions: mouse, read-out: Blood level; for concentration at 0.25 h: 15'; for concentration at 0.5 h: 30'; for concentration at 1 h: 60'; for concentration at 2 h: 120'
Procedure: Groups of mice were administered subcutaneously graded doses of 40, 20 and 10 mg./kg..

Pr. mirabilis = test: MIC by Steers' agar dilution method; conditions: Proteus mirabilis
Pr. rettgeri = test: MIC by Steers' agar dilution method; conditions: Providencia rettgeri
S. paratyphi = test: MIC by Steers' agar dilution method; conditions: Salmonella enterica
Pr. morganii = test: MIC by Steers' agar dilution method; conditions: Morganella morganii
B. anthracis = test: microbe, parasite or virus in culture; format: cell-based; conditions: Bacillus anthracis
[2] = strain not named (2nd of 2), MHA, Example 10

Cn1nnnc1SCC1=C(C(=O)O)N2C(=O)[C@@H](NC(=O)[C@H](O)c3ccccc3)[C@H]2SC1 [Cefamandole, cefamandole, reference compound]
58.3%: dose excreted at 24 h (Urinary recovery in rats)
50 µg/mL: MIC (St. faecalis)
> 100 µg/mL: MIC (St. faecalis; MHA, Example 10) | MIC (St. faecalis; Sf-3 S. faecalis A9536, NA, Table 4) | MIC (Pr. morganii; A9553, MHA, Table 1) | MIC (Pr. morganii; Pg-1 A9553 (β-lactamase), HIA, Table 4) | MIC (Pr. morganii; Pg-1 A9553 (β-lactamase), MHA, Table 4) | MIC (Pr. morganii; Pg-1 A9553 (β-lactamase), NA, Table 4) | MIC (Pr. morganii; Pg-1 A9553, MHA, Table 3) | MIC (Pr. morganii; strain not given (1st of 2), MHA, Example 10)
3900 ng/mL: concentration at 1 h ([1]; sc 40 mg./kg.)
18000 ng/mL: concentration at 0.25 h ([1]; sc 40 mg./kg.)
100 ng/mL: concentration at 2 h ([1]; sc 10 mg./kg.)
36 mg/kg: ED50 (P. vulgaris A9436 (Pv-1); Proteus vulgaris, in Mus musculus, sc, read-out: PD50)
0.8 µg/mL: MIC (Kl. pneumoniae; A9867, MHA, Table 1) | MIC (Kl. pneumoniae; A15130, MHA, Table 1) | MIC (Kl. pneumoniae; Kp-1 D11, MHA, Table 3) | MIC (Kl. pneumoniae; Kp-3 A9977, HIA, Table 4) | MIC (Kl. pneumoniae; Kp-3 A9977, MHA, Table 3) | MIC (Kl. pneumoniae; Kp-3 A9977, MHA, Table 4) | MIC (Kl. pneumoniae; Kp-4 A15130, HIA, Table 4) | MIC (Kl. pneumoniae; Kp-4 A15130, MHA, Table 3) | MIC (Kl. pneumoniae; Kp-4 A15130, MHA, Table 4) | MIC (Kl. pneumoniae; Kp-4 A15130, NA, Table 4) | MIC (Kl. pneumoniae; Kp-7 A9867, MHA, Table 3) | MIC (Kl. pneumoniae; strain not named (2nd of 4), MHA, Example 10) | MIC (Kl. pneumoniae; strain not named (3rd of 4), MHA, Example 10) | MIC (Kl. pneumoniae; strain not named (4th of 4), MHA, Example 10) | MIC (P. stuartii; Ps-1 A20745, MHA, Table 3) | MIC (P. stuartii; Ps-2 A20894, MHA, Table 3) | MIC (P. stuartii; Ps-3 A20911, MHA, Table 3) | MIC (P. stuartii; Ps-5 A21057, MHA, Table 3) | MIC (Pr. mirabilis; Pm-2 A9900, MHA, Table 4) | MIC (Pr. rettgeri; Pr-5 A20915, MHA, Table 3) | MIC (Pr. morganii; A20031, MHA, Table 1) | MIC (Pr. morganii; Pg-2 A20031, HIA, Table 4) | MIC (Pr. morganii; Pg-2 A20031, MHA, Table 4) | MIC (Pr. morganii; Pg-7 A20457, MHA, Table 3) | MIC (Pr. morganii; Pg-8 A15153, MHA, Table 3) | MIC (Pr. morganii; [2])
< 100 ng/mL: concentration at 2 h ([1]; sc 20 mg./kg.)
5/5: No. of survivors/No. tested (S. aureus Smith; 1.6 mg./kg.) | No. of survivors/No. tested (S. aureus Smith; 6.3 mg./kg.) | No. of survivors/No. tested (S. aureus Smith; 25 mg./kg.)
0.4 µg/mL: MIC (Kl. pneumoniae; Kp-3 A9977, NA, Table 4) | MIC (P. stuartii; Ps-2 A20894, HIA, Table 4) | MIC (P. stuartii; Ps-2 A20894, NA, Table 4) | MIC (Pr. mirabilis; A9554, MHA, Table 1) | MIC (Pr. mirabilis; Pm-1 A9554, HIA, Table 4) | MIC (Pr. mirabilis; Pm-2 A9900, HIA, Table 4) | MIC (Pr. mirabilis; Pm-2 A9900, NA, Table 4) | MIC (Pr. rettgeri; MHA, Example 10) | MIC (Pr. morganii; Pg-2 A20031, NA, Table 4) | MIC (B. anthracis; Ba-3 A9504, MHA, Table 4) | MIC (B. anthracis; Ba-3 A9504, NA, Table 4) | MIC (B. anthracis; MHA, Example 10)
0.6 mg/kg: ED50 (S. aureus Smith; Staphylococcus aureus, read-out: PD50)
0.1 µg/mL: MIC (S. pyogenes) | MIC (S. pyogenes; Sp-2 Dick, MHA, Table 2) | MIC (S. pyogenes; Sp-3 A9604, MHA, Table 2) | MIC (S. pyogenes; Sp-5 A15040, MHA, Table 2) | MIC (S. pyogenes; Sp-6 A20066, MHA, Table 2) | MIC (S. pyogenes; Sp-7 Dig 7, MHA, Table 2) | MIC (S. pyogenes; Sp-8 A15041, MHA, Table 2) | MIC (S. pyogenes; Sp-9 A20201, MHA, Table 2) | MIC (S. pyogenes; Sp-10 A20202, MHA, Table 2) | MIC (S. pyogenes; Streptococcus pyogenes) | MIC (Pr. rettgeri; Pr-1 A15167, HIA, Table 4) | MIC (Pr. rettgeri; Pr-2 A9637, MHA, Table 3) | MIC (Pr. rettgeri; Pr-4 A20645, MHA, Table 3)
11000 ng/mL: concentration at 0.5 h ([1]; sc 40 mg./kg.)
1/5: No. of survivors/No. tested (S. aureus Smith; 0.4 mg./kg.) | No. of survivors/No. tested (P. vulgaris A9436 (Pv-1); 12.5 mg./kg.)
1000 ng/mL: concentration at 1 h ([1]; sc 20 mg./kg.)
6.3 µg/mL: MIC (Kl. pneumoniae; Kp-12 A21228, MHA, Table 3) | MIC (P. stuartii; Ps-1 A20745, HIA, Table 4) | MIC (P. stuartii; Ps-1 A20745, NA, Table 4) | MIC (P. stuartii; Ps-3 A20911 (β-lactamase), HIA, Table 4) | MIC (P. stuartii; Ps-3 A20911 (β-lactamase), NA, Table 4)
0.2 µg/mL: MIC (Kl. pneumoniae; A9977, MHA, Table 1) | MIC (P. stuartii; Ps-2 A20894, MHA, Table 4) | MIC (S. typhimurium) | MIC (Pr. mirabilis; Pm-1 A9554, NA, Table 4) | MIC (Pr. mirabilis; [2]) | MIC (Pr. rettgeri; A15167, MHA, Table 1) | MIC (Pr. rettgeri; Pr-1 A15167, MHA, Table 3) | MIC (Pr. rettgeri; Pr-1 A15167, MHA, Table 4) | MIC (Pr. rettgeri; Pr-1 A15167, NA, Table 4) | MIC (Pr. rettgeri; Pr-6 A20920, MHA, Table 3) | MIC (S. paratyphi) | MIC (Pr. morganii; Pg-5 A15166, MHA, Table 3) | MIC (B. anthracis; Ba-3 A9504, HIA, Table 4)
300 ng/mL: concentration at 1 h ([1]; sc 10 mg./kg.) | concentration at 2 h ([1]; sc 40 mg./kg.)
4100 ng/mL: concentration at 0.5 h ([1]; sc 20 mg./kg.)
25 µg/mL: MIC (P. stuartii; Ps-4 A21051, MHA, Table 3)
100 µg/mL: MIC (St. faecalis; Sf-3 S. faecalis A9536, HIA, Table 4) | MIC (St. faecalis; Sf-3 S. faecalis A9536, MHA, Table 4)
1500 ng/mL: concentration at 0.5 h ([1]; sc 10 mg./kg.)
1.6 µg/mL: MIC (Kl. pneumoniae; Kp-2 A9678, MHA, Table 3) | MIC (P. stuartii; Ps-1 A20745, MHA, Table 4) | MIC (Pr. mirabilis; Pm-2 A9900, MHA, Table 3) | MIC (Pr. mirabilis; Pm-4 A20454, MHA, Table 3) | MIC (Pr. mirabilis; Pm-6 A21222, MHA, Table 3) | MIC (Pr. morganii; Pg-2 A20031, MHA, Table 3) | MIC (Pr. morganii; Pg-3 A9636, MHA, Table 3) | MIC (Pr. morganii; Pg-6 A20455 (β-lactamase), MHA, Table 4) | MIC (Pr. morganii; Pg-6 A20455 (β-lactamase), NA, Table 4) | MIC (Pr. morganii; Pg-6 A20455, MHA, Table 3)
3/5: No. of survivors/No. tested (P. vulgaris A9436 (Pv-1); 50 mg./kg.)
3800 ng/mL: concentration at 0.25 h ([1]; sc 10 mg./kg.)
9500 ng/mL: concentration at 0.25 h ([1]; sc 20 mg./kg.)
12.5 µg/mL: MIC (Kl. pneumoniae; Kp-8 A20680, MHA, Table 3) | MIC (Kl. pneumoniae; Kp-9 A20636, MHA, Table 3) | MIC (Kl. pneumoniae; Kp-11 A20330, MHA, Table 3)
0/5: No. of survivors/No. tested (P. vulgaris A9436 (Pv-1); 0.8 mg./kg.) | No. of survivors/No. tested (P. vulgaris A9436 (Pv-1); 3.1 mg./kg.)
3.1 µg/mL: MIC (Kl. pneumoniae; A9678, MHA, Table 1) | MIC (Kl. pneumoniae; Kp-10 A20328, MHA, Table 3) | MIC (Kl. pneumoniae; strain not named (1st of 4), MHA, Example 10) | MIC (P. stuartii; Ps-3 A20911 (β-lactamase), MHA, Table 4) | MIC (Pr. mirabilis; Pm-3 A20119, MHA, Table 3) | MIC (Pr. morganii; Pg-6 A20455 (β-lactamase), HIA, Table 4) | MIC (Pr. morganii; Pg-9 A15149, MHA, Table 3)
